Patent US7473541B2, “Identification, cloning, expression, and purification of three novel human calcium-independent phospholipase A2 family members possessing triacylglycerol lipase and acylglycerol transacylase activities” (priority 2004, dated 2009)

Columns and labels:
iPLA2zeta = target: T1, iPLA2zeta (Homo sapiens, UniProt Q96AD5, L481P); test: Triolein lipase activity inhibition by BEL; type: biochemical; conditions: pre-incubated with 0.1-2 microM BEL prior to substrate
T1 construct: Full-length human iPLA2zeta (TTS-2.2) and iPLA2eta (GS2) were amplified by PCR; made in house; host or cells: Sf9 insect cells (baculovirus)
T1 sequence (Q96AD5 with tags, fused parts or gaps L481P): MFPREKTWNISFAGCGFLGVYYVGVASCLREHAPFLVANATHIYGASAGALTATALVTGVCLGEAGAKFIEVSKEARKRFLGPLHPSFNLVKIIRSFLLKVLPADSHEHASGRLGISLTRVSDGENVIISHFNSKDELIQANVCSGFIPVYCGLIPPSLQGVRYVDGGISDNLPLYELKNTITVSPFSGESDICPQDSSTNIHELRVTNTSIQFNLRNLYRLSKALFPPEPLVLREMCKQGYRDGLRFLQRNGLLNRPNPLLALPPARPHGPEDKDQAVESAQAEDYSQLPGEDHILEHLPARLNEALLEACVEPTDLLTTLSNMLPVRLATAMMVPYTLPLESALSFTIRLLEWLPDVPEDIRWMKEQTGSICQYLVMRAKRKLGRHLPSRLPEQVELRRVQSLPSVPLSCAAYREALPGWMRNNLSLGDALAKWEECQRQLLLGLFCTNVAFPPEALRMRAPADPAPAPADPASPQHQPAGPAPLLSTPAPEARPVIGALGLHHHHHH
Method: (§1) Assay for Triolein Lipase Activity—Sample fractions were incubated in 85 mM potassium phosphate, pH 7.0 containing 2 mM EDTA and 2 mM DTT for 15 min at 37° C. in the presence of a suspension of 100 microM [9,10-^3H(N)]-triolein (100 microCi/micromol) in 25 microM egg yolk lecithin, and 100 microM sodium taurocholate. In some reactions, BEL was added at the indicated concentrations and incubated with enzyme at room temperature for 3 min prior to the addition of radiolabeled substrate. After extraction of radiolabeled reaction products and remaining substrate into butanol, samples were spotted on TLC plates, overlaid with oleic acid standard, dried, and developed in chloroformlmethanol/NH4OH (65:25:5). The region of the plate corresponding to the oleic acid standard (visualized by iodine staining) was scraped into scintillation vials and quantified by liquid scintillation spectrometry.
(§2) To determine whether the three new iPLA2 family members were inhibitable by BEL, each enzyme was pre-incubated with 0.1-2 microM BEL or ethanol vehicle alone prior to measuring triolein lipase activity (FIG. 5). […] Considering the hydrophobic nature of the acyl-glycerol substrates of iPLA2epsilon, iPLA2zeta, and iPLA2eta identified herein, it is not surprising that BEL would have access to the active sites of these enzymes.

iPLA2eta = target: T2, iPLA2eta (Homo sapiens, UniProt P41247); test: Triolein lipase activity inhibition by BEL; type: biochemical; conditions: pre-incubated with 0.1-2 microM BEL prior to substrate
T2 construct: Full-length human iPLA2zeta (TTS-2.2) and iPLA2eta (GS2) were amplified by PCR; made in house; host or cells: Sf9 insect cells (baculovirus)
T2 sequence (P41247 1-253): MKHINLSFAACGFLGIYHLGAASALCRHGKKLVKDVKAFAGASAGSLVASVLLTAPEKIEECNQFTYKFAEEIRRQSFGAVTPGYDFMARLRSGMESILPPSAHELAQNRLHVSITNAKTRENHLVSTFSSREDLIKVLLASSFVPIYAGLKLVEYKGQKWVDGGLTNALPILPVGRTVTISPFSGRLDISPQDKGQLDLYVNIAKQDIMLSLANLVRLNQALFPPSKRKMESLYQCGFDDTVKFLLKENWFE
Method: as §1, §2

iPLA2epsilon = target: T3, iPLA2epsilon (Homo sapiens, UniProt Q9NST1, K434E); test: Triolein lipase activity inhibition by BEL; type: biochemical; conditions: pre-incubated with 0.1-2 microM BEL prior to substrate
T3 construct: used as a template for PCR to obtain full-length CDNA for iPLA2epsilon; made in house; host or cells: Sf9 insect cells (baculovirus)
T3 sequence (Q9NST1 with tags, fused parts or gaps K434E): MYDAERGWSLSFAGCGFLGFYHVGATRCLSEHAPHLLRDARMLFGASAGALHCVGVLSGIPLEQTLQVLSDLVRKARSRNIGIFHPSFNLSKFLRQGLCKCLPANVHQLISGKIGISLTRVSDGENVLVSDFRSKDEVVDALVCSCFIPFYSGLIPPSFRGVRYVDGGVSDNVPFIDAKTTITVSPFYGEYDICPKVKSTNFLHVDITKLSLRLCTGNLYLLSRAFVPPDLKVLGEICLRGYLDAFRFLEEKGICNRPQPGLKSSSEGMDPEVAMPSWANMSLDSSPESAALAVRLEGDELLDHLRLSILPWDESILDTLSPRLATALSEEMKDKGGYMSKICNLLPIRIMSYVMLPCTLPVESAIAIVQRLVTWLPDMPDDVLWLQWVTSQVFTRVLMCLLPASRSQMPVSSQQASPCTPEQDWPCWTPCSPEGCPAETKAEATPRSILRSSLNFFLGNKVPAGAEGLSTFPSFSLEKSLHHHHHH
Method: as §1, §2

iPLA2beta = target: T4, iPLA2beta (Homo sapiens, UniProt O60733); conditions: previously demonstrated (refs 37-39); cited from earlier work
T4 sequence (O60733 1-806): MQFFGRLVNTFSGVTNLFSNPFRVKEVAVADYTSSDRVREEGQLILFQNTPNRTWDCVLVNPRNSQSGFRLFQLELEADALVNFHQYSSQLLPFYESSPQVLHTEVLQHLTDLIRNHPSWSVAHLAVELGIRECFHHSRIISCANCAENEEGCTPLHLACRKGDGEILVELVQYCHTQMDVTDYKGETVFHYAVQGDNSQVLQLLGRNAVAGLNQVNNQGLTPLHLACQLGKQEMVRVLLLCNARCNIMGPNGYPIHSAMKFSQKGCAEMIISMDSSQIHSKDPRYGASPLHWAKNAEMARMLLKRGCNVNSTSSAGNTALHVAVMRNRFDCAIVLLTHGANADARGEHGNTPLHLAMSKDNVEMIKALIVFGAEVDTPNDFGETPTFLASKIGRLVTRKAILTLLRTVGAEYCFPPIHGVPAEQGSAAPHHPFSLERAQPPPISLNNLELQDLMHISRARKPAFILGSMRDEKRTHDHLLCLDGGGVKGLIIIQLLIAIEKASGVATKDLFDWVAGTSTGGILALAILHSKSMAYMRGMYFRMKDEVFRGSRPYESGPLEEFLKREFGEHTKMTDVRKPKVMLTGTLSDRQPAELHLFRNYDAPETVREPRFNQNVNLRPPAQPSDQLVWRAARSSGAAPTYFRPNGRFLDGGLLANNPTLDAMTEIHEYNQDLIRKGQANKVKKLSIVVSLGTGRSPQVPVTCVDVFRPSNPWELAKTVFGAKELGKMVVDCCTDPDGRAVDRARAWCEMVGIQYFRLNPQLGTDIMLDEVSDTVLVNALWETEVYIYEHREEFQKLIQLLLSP

[1] = target: iPLA2epsilon, iPLA2zeta, and iPLA2eta; test: Triglyceride lipase activity inhibition, summary over the three isoforms; type: biochemical, human; conditions: range over iPLA2epsilon, zeta, eta; read-out: IC50, triglyceride lipase activity of each of the three isoforms
Method: as §1

iPLA2gamma = target: T5, iPLA2gamma (Homo sapiens, UniProt Q9NP80); conditions: previously demonstrated (refs 37-39); cited from earlier work
T5 sequence (Q9NP80 1-782): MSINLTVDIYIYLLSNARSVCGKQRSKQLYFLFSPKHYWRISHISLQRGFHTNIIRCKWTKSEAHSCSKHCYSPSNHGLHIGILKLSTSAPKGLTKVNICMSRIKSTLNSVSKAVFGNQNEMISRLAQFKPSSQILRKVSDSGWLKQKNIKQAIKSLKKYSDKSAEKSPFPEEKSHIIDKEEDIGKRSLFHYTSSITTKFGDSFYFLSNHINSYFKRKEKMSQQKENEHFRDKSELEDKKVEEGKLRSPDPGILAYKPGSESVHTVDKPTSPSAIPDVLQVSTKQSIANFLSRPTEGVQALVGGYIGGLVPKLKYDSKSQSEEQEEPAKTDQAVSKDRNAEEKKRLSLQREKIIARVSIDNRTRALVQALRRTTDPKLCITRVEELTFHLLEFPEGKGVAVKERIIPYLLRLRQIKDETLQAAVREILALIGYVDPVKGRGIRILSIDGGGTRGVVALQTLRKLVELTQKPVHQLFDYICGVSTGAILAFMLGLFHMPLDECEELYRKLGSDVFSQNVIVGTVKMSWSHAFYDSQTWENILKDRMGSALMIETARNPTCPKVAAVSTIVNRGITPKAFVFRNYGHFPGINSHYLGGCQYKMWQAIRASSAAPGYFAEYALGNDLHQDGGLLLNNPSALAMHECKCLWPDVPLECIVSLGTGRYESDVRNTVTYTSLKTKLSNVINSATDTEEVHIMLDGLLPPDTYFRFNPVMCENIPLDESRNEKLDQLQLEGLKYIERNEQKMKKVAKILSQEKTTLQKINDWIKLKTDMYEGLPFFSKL

IC50 (iPLA2zeta): ~500 nM | IC50 (iPLA2eta): ~100 nM | IC50 (iPLA2epsilon): ~100 nM | IC50 [1]: 100 to 500 nM
SMILES: O=C1O/C(=C/Br)CCC1c1cccc2ccccc12 (stereo not drawn) [BEL, (E)-6-(bromomethylene)-3-(1-naphthalenyl)-2H-tetrahydropyran-2-one]
inhibition of iPLA2beta activity (iPLA2beta): sub to low micromolar concentrations | inhibition of iPLA2gamma activity (iPLA2gamma): sub to low micromolar concentrations
